According to ChEMBL document CHEMBL3785044, “Phenobarbital metabolism in adults and in newborn infants” (Acta Paediatr Scand, 1978):

Legend:
[1] = Disposition rate constant in subject at 5.21 mg/kg, po by gas chromatography; format: ADME, organism-based; conditions: female, human, in vivo
[2] = Disposition rate constant in subject at 4.33 mg/kg, po by gas chromatography; format: ADME, organism-based; conditions: male, human, in vivo
[3] = tested on: Homo sapiens; test: Disposition rate constant in newborn infants (2 patients) at 12 mg/kg, im by gas chromatography; format: ADME, organism-based; conditions: in vivo
[4] = Disposition rate constant in newborn infants at 20.6 mg/kg, po by gas chromatography; format: ADME, organism-based; conditions: human, in vivo
[5] = Disposition rate constant in newborn infants at 11.4 mg/kg, im by gas chromatography; format: ADME, organism-based; conditions: human, in vivo
[6] = Half life in subject at 5.21 mg/kg, po by gas chromatography; format: ADME, organism-based; conditions: female, human, in vivo
[7] = Half life in subject at 4.33 mg/kg, po by gas chromatography; format: ADME, organism-based; conditions: male, human, in vivo
[8] = tested on: Homo sapiens; test: Half life in newborn infants (2 patients) at 12 mg/kg, im by gas chromatography; format: ADME, organism-based; conditions: in vivo
[9] = Half life in newborn infants at 20.6 mg/kg, po by gas chromatography; format: ADME, organism-based; conditions: human, in vivo
[10] = Half life in newborn infants at 11.4 mg/kg, im by gas chromatography; format: ADME, organism-based; conditions: human, in vivo
[11] = tested on: Homo sapiens; test: Apparent drug level in subject at 5.21 mg/kg, po measured at time zero by gas chromatography; format: ADME, organism-based; conditions: in vivo
[12] = tested on: Homo sapiens; test: Apparent drug level in subject at 4.33 mg/kg, po measured at time zero by gas chromatography; format: ADME, organism-based; conditions: in vivo
[13] = tested on: Homo sapiens; test: Apparent drug level in newborn infants (2 patients) at 12 mg/kg, im measured at time zero by gas chromatography; format: ADME, organism-based; conditions: in vivo
[14] = tested on: Homo sapiens; test: Apparent drug level in newborn infants at 20.6 mg/kg, po measured at time zero by gas chromatography; format: ADME, organism-based; conditions: in vivo
[15] = tested on: Homo sapiens; test: Apparent drug level in newborn infants at 11.4 mg/kg, po measured at time zero by gas chromatography; format: ADME, organism-based; conditions: in vivo
[16] = tested on: Homo sapiens; test: Apparent volume of distribution in subject at 5.21 mg/kg, po by gas chromatography; format: ADME, organism-based; conditions: in vivo
[17] = tested on: Homo sapiens; test: Apparent volume of distribution in male subject at 4.33 mg/kg, po by gas chromatography; format: ADME, organism-based; conditions: in vivo
[18] = tested on: Homo sapiens; test: Apparent volume of distribution in newborn infants (2 patients) at 12 mg/kg, im by gas chromatography; format: ADME, organism-based; conditions: in vivo
[19] = tested on: Homo sapiens; test: Apparent volume of distribution in newborn infants at 20.6 mg/kg, po by gas chromatography; format: ADME, organism-based; conditions: in vivo
[20] = tested on: Homo sapiens; test: Apparent volume of distribution in newborn infants at 11.4 mg/kg, im by gas chromatography; format: ADME, organism-based; conditions: in vivo
[21] = Plasma concentration in subject at 5.21 mg/kg, po measured after 17 days by gas chromatography; format: ADME, organism-based; conditions: female, human
[22] = Drug excretion in subject assessed as phenobarbital, p-hydroxyphenobarbital and conjugated p-hydroxyphenobarbital level in urine at 5.21 mg/kg, po measured during first 2 weeks by gas chromatography; format: ADME, organism-based; conditions: human, in vivo, 336 h
[23] = Drug excretion in subject assessed as phenobarbital, p-hydroxyphenobarbital and conjugated p-hydroxyphenobarbital level in urine at 4.33 mg/kg, po measured during first 2 weeks by gas chromatography; format: ADME, organism-based; conditions: human, in vivo, 336 h
[24] = Drug excretion in subject assessed as phenobarbital, p-hydroxyphenobarbital and conjugated p-hydroxyphenobarbital level in urine at 5.21 mg/kg, po measured during 4 week period by gas chromatography; format: ADME, organism-based; conditions: human, in vivo, 672 h
[25] = Drug excretion in po dosed adult (2 subjects) assessed as unchanged compound level in urine at measured during first 8 days by gas chromatography; format: ADME, organism-based; conditions: human, read-out: Drug excretion
[26] = Drug excretion in newborn infants (4 patients) assessed as unchanged compound level in urine at measured during first 8 days by gas chromatography; format: ADME; conditions: human, read-out: Drug excretion
[27] = Drug excretion in newborn infants (4 patients) assessed as p-hydroxy phenobarbital level in urine at measured during first 8 days by gas chromatography; format: ADME, tissue-based; conditions: human, in vivo, 192 h

With CCC1(c2ccccc2)C(=O)NC(=O)NC1=O [PHENOBARBITAL] the k el [1] was 1.64e-06 s⁻¹, the k el [2] was 2.28e-06 s⁻¹ and the K [3] was 0.004 h⁻¹. It also gave a k el [4] of 2.33e-06 s⁻¹, a k el [5] of 1.61e-06 s⁻¹ and a half-life [6] of 117 h. It also gave a half-life [7] of 84 h, a t1/2 [8] of 61 h and a half-life [9] of 83 h. For the same compound, the half-life [10] was 119 h, the Drug uptake [11] was 10 µg/mL and the Drug uptake [12] was 9.3 µg/mL. It also gave a Drug uptake [13] of 18.1 µg/mL, a Drug uptake [14] of 21 µg/mL and a Drug uptake [15] of 17.8 µg/mL. The “Vd(app)” value [16] was 0.52 L/kg, the “Vd(app)” value [17] was 0.47 L/kg and the “Vd(app)” value [18] was 0.59 L/kg. For the same compound, the “Vd(app)” value [19] was 0.98 L/kg, the “Vd(app)” value [20] was 0.99 L/kg and the concentration at 408 h [21] was 500 ng/mL. For the same compound, the Drug excretion [22] was 65%, the Drug excretion [23] was 35% and the Drug excretion [24] was 75%. For the same compound, the dose excreted at 192 h [25] was 16%, the dose excreted at 192 h [26] was 17% and the Drug excretion [27] was 10%.
